ChEMBL document CHEMBL1201862, “PubChem BioAssay data set” (2004)
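Where inhibition never reached the appropriate level, the endpoint shown equals the highest concentration tested. Otherwise, values were interpolated linearly from a five-concentration, 48-hour dose response in 96-well plates. At the GI50, growth is halved.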 The source made the active and inactive calls. No stated cut-off is given here; in the data, active = GI50 up to about 1.1 µM and inactive = higher.

Assays:
Assay in all cases: NCI-60 cell line screen, 48 h
SW-620 = system: SW-620
UO-31 = system: UO-31
OVCAR-8 = system: OVCAR-8
EKVX = system: EKVX
COLO 205 = system: COLO 205
SK-MEL-28 = system: SK-MEL-28
NCI-H226 = system: NCI-H226
RXF 393 = system: RXF 393
UACC-257 = system: UACC-257
HOP-92 = system: HOP-92
SK-OV-3 = system: SK-OV-3
NCI-H23 = system: NCI-H23
SK-MEL-2 = system: SK-MEL-2
Malme-3M = system: Malme-3M
SR = system: SR

Measured: GI50

O=c1nc(NC(c2ccccc2)(c2ccccc2)c2ccccc2)ccn1CCNCCn1ccc(NC(c2ccccc2)(c2ccccc2)c2ccccc2)nc1=O
inactive: SW-620 6.64 µM | UO-31 > 100 µM | OVCAR-8 10.7 µM | EKVX 18.7 µM | COLO 205 10.7 µM | SK-MEL-28 6.07 µM | NCI-H226 14.5 µM | RXF 393 11.8 µM | UACC-257 5.82 µM | HOP-92 5.45 µM | SK-OV-3 19.6 µM | NCI-H23 12.5 µM | SK-MEL-2 2.66 µM | Malme-3M 11.8 µM

CC1CC2C(=O)N(c3ccccc3)C(=O)C2c2c1c1ccccc1n2Cc1ccccc1 (stereo unspecified)
inactive: SW-620 > 100 µM | UO-31 > 100 µM | OVCAR-8 > 100 µM | EKVX > 100 µM | COLO 205 49.8 µM | NCI-H226 33.3 µM | HOP-92 9.84 µM | SK-OV-3 > 100 µM | SK-MEL-2 > 100 µM | SR 27.2 µM | Malme-3M > 100 µM

CC1(C)Cc2nnsc2C2=C1C(=O)CCS2
inactive: SW-620 > 100 µM | UO-31 > 100 µM | OVCAR-8 > 100 µM | EKVX > 100 µM | COLO 205 > 100 µM | SK-MEL-28 > 100 µM | RXF 393 > 100 µM | UACC-257 > 100 µM | HOP-92 32.7 µM | SK-OV-3 > 100 µM | NCI-H23 > 100 µM | SK-MEL-2 > 100 µM | Malme-3M > 100 µM

CN(C)C(=S)/N=c1\ss/c(=N\c2ccccc2)n1-c1ccccc1
inactive: SW-620 25 µM | UO-31 32.9 µM | OVCAR-8 19.2 µM | EKVX 37.3 µM | SK-MEL-28 29 µM | NCI-H226 10.7 µM | RXF 393 16.3 µM | UACC-257 24.2 µM | HOP-92 12.5 µM | SK-OV-3 40.6 µM | NCI-H23 25.8 µM | SK-MEL-2 29.5 µM | Malme-3M 21.3 µM

NNC(=O)CCC(=O)NC1C2CC3CC(C2)CC1C3 (stereo unspecified)
inactive: SW-620 > 100 µM | UO-31 > 100 µM | OVCAR-8 > 100 µM | COLO 205 > 100 µM | SK-MEL-28 > 100 µM | NCI-H226 > 100 µM | RXF 393 45.4 µM | UACC-257 > 100 µM | HOP-92 > 100 µM | SK-OV-3 > 100 µM | NCI-H23 > 100 µM | SK-MEL-2 > 100 µM | Malme-3M > 100 µM

COc1ccc(OCC(=O)O)c2c1CCC(C(C)C)C2=O (stereo unspecified)
inactive: SW-620 > 100 µM | UO-31 > 100 µM | OVCAR-8 > 100 µM | EKVX > 100 µM | COLO 205 > 100 µM | SK-MEL-28 > 100 µM | UACC-257 > 100 µM | HOP-92 80.2 µM | SK-OV-3 > 100 µM | NCI-H23 > 100 µM | SK-MEL-2 > 100 µM | Malme-3M > 100 µM

CC(=O)OCC1OC(OC2CC3C(C)(C)C(OC(C)=O)CC[C@]3(C)C3CCC45CC4(CC[C@H]5C(C)CC(O)[C@@H](O)C(C)(C)O)[C@]23C)C(O)C(O)C1O (stereo partly specified)
inactive: SW-620 7.69 µM | UO-31 6.38 µM | OVCAR-8 7.45 µM | EKVX 7 µM | COLO 205 7.8 µM | SK-MEL-28 7.4 µM | NCI-H226 7.18 µM | RXF 393 7.57 µM | UACC-257 7.53 µM | HOP-92 7.01 µM | SK-OV-3 5.83 µM | NCI-H23 8.53 µM | SK-MEL-2 9.38 µM | Malme-3M 7.69 µM

CC1CC[C@]2(C(=O)O)CCC3(C)C(=CCC4[C@@]5(C)CC[C@H](OS(=O)(=O)c6ccccc6)C(C)(C)C5CC[C@]43C)[C@@H]2[C@H]1C (stereo partly specified)
inactive: SW-620 > 100 µM | UO-31 88.9 µM | OVCAR-8 > 100 µM | EKVX 55.1 µM | COLO 205 38.1 µM | SK-MEL-28 > 100 µM | NCI-H226 62.2 µM | UACC-257 > 100 µM | HOP-92 > 100 µM | SK-OV-3 > 100 µM | NCI-H23 52.7 µM | SK-MEL-2 48.9 µM | SR 36.8 µM | Malme-3M > 100 µM

Cc1nc2ccccc2c(=O)[nH]1
inactive: SW-620 > 100 µM | UO-31 > 100 µM | OVCAR-8 > 100 µM | EKVX > 100 µM | COLO 205 > 100 µM | SK-MEL-28 > 100 µM | NCI-H226 > 100 µM | RXF 393 > 100 µM | UACC-257 > 100 µM | HOP-92 > 100 µM | SK-OV-3 > 100 µM | NCI-H23 > 100 µM | SK-MEL-2 > 100 µM | Malme-3M > 100 µM

CC(=O)OC(/C=C1/C=CC(=O)O1)COC(=O)c1ccccc1 (stereo unspecified) [ACETYLMELODORINOL]
inactive: SW-620 > 31.2 µM | UO-31 > 31.2 µM | OVCAR-8 > 31.2 µM | EKVX > 31.2 µM | COLO 205 > 31.2 µM | SK-MEL-28 > 31.2 µM | NCI-H226 > 31.2 µM | RXF 393 > 31.2 µM | UACC-257 > 31.2 µM | HOP-92 > 31.2 µM | SK-OV-3 > 31.2 µM | NCI-H23 > 31.2 µM | Malme-3M > 31.2 µM
